From patent US20050197338A1, “Substituted pyrazole urea compounds for the treatment of inflammation” (priority 2003, published 2005)

Molecular target: T1, human IKK-2 (rhIKK-2 homodimer) (Homo sapiens, UniProt O14920)
T1 construct: FLAG (DYKDDDDKD) (C); made in house; host or cells: insect cells (baculovirus, pFastBac)
T1 sequence (O14920 1-756): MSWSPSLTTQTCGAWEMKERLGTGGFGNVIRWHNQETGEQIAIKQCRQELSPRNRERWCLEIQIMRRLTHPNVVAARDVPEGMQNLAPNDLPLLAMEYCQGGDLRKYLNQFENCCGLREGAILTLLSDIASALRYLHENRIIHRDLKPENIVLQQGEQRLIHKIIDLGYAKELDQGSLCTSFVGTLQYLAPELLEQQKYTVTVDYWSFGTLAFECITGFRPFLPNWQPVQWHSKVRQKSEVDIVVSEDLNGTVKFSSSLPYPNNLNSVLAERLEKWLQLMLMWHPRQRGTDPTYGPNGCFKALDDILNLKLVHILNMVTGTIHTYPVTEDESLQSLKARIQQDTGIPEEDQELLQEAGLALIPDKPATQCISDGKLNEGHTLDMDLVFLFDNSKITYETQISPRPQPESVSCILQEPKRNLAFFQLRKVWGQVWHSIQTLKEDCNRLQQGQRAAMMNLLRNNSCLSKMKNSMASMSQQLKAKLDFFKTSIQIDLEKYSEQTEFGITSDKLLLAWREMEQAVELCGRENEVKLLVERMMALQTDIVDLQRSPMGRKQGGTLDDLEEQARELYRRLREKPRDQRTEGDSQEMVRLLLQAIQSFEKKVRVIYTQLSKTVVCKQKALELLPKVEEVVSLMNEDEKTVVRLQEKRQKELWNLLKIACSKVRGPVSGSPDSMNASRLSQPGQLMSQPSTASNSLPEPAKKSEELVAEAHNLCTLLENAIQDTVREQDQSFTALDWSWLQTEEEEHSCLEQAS
Assay: IKK-2 Resin Enzyme Assay (Human IKK-2 Enzyme Assay)
Assay type: biochemical
Details: human IKK-2, resin enzyme assay; read-out: IC50 (μM) hIKK-2
Excerpt: Materials: SAM^2™96 Biotin capture plates were from Promega. Anti-FLAG affinity resin, FLAG-peptide, NP-40 (Nonidet P-40), BSA, ATP, ADP, AMP, LPS (E. coli serotype 0111:B4), and dithiothreitol were obtained from Sigma Chemicals. Antibodies specific for NEMO (IKK-γ) (FL-419), IKK-1 (H-744), IKK-2(H-470) and IκBa(C-21) were purchased from Santa Cruz Biotechnology. Ni-NTA resin was purchased from Qiagen. Peptides were purchased from American Peptide Company. Protease inhibitor cocktail tablets were from Boehringer Mannheim. Sephacryl S-300 column was from Pharmacia LKB Biotechnology. Centriprep-10 concentrators with a molecular weight cutoff of 10 kDa and membranes with molecular weight cut-off of 30 kDa were obtained from Amicon. [γ-^33P] ATP (2500 Ci/mmol) and [γ-^32P] ATP (6000 Ci/mmol) were purchased from Amersham. The other reagents used were of the highest grade commercially available.
Cloning and Expression: cDNAs of human IKK-1 and IKK-2 were amplified by reverse transcriptase-polymerase chain reaction from human placental RNA (Clonetech). hlKK-1 was subcloned into pFastBac HTa (Life Technologies) and expressed as N-terminal His6-tagged fusion protein. The hlKK-2 cDNA was amplified using a reverse oligonucleotide primer which incorporated the peptide sequence for a FLAG-epitope tag at the C-terminus of the IKK-2 coding region (DYKDDDDKD). The hlKK-2:FLAG cDNA was subcloned into the baculovirus vector pFastBac. The rhIKK-2 ([…]) mutant was constructed in the same vector used for wild type rhIKK-2 using a QuikChange™ mutagenesis kit (Stratagene). Viral stocks of each construct were used to infect insect cells grown in 40 L suspension culture. […] Cell lysates were stored at −80° C. until purification of the recombinant proteins was undertaken as described below.
Enzyme Isolation: All purification procedures were carried out at 4° C. unless otherwise noted. Buffers used are: buffer A: 20 mM Tris-HCl, pH 7.6, containing 50 mM NaCl, 20 mM NaF, 20 mM β-Glycerophosphate, 500 μM sodium orthovanadate, 2.5 mM metabisulfite, 5 mM benzamidine, 1 mM EDTA, 0.5 mM EGTA, 10% glycerol, 1 mM DTT, 1× Complete™ protease inhibitors; buffer B: same as buffer A, except 150 mM NaCl, and buffer C: same as buffer A, except 500 mM NaCl.
Isolation of rhIKK-2 homodimer: A 10-liter culture of baculovirus-expressing IKK-2 tagged with FLAG peptide was centrifuged and the cell pellet (MOI=0.1 and 1=72 h) was re-suspended in buffer A. These cells were microfluidized, and centrifuged at 100,000×g for 45 min. Supernatant was passed over a G-25 column equilibrated with Buffer A. Protein peak was collected and incubated with anti-FLAG affinity resin on a rotator overnight in buffer B. The resin was washed in batch with 10-15 bed volumes of buffer C. Washed resin was poured into a column and rhIKK-2 homodimer was eluted using 5 bed volumes of buffer B containing FLAG peptide. 5 mM DTT, 0.1% NP-40 and BSA (concentrated to 0.1% in final amount) was added to the eluted enzyme before concentrating in using an Amicon membrane with a molecular weight cut-off of 30 kDa. Enzyme was aliquoted and stored at −80° C.
IKK-2 Resin Enzyme Assay: IKK-2 kinase activity was measured using a biotinylated IκBα peptide (Gly-Leu-Lys-Lys-Glu-Arg-Leu-Leu-Asp-Asp-Arg-His-Asp-Ser32-Gly-Leu-Asp-Ser36-Met-Lys-Asp-Glu-Glu) (American Peptide Co.). 20 μL of the standard reaction mixture contained 5 μM biotinylated IκBα peptide, 0.1 μCi/reaction [γ-^33P] ATP (Amersham) (about 1×10^5 cpm), 1 μM ATP (Sigma), 1 mM DTT (Sigma), 2 mM MgCl2 (Sigma), 2 mM MnCl2 (Sigma), 10 mM NaF (Sigma), 25 mM Hepes (Sigma) buffer, pH 7.6 and 20 μL enzyme solution and 10 μL inhibitor in a final volume of 50 μL. After incubation at 25° C. for 30 min, 150 μL resin (Dowex anion-exchange resin AG1X8 200-400 mesh) in 900 mM formate, pH 3.0 was added to each well to stop the reaction. Resin was allowed to settle for 1 h and 50 μL of supernatant was removed to a Micolite-2 flat bottom plate (Dynex). […]

SMILES	IC50 [µM]
NC(=O)Nc1cn(-c2ccc(-c3ccc(CN4CCOCC4)cc3)cc2)nc1C(N)=O [Example 34, 4-[(aminocarbonyl)amino]-1-[4′-(morpholin-4-ylmethyl)-1,1′-biphenyl-4-yl]-1H-pyrazole-3-carboxamide]	4.21
NC(=O)Nc1cn(-c2ccc(-c3ccc(C(=O)NCc4ccccc4)cc3)cc2)nc1C(N)=O [Example 35, 4-[(aminocarbonyl)amino]-1-{4′-[(benzylamino)carbonyl]-1,1′-biphenyl-4-yl}-1H-pyrazole-3-carboxamide]	1.33
NC(=O)Nc1cn(-c2ccc(-c3ccc(O)cc3)cc2)nc1C(N)=O [Example 36, 4-[(aminocarbonyl)amino]-1-(4′-hydroxy-1,1′-biphenyl-4-yl)-1H-pyrazole-3-carboxamide]	1.63
N#CCc1ccc(-c2ccc(-n3cc(NC(N)=O)c(C(N)=O)n3)cc2)cc1 [Example 37, 4-[(aminocarbonyl)amino]-1-[4′-(cyanomethyl)-1,1′-biphenyl-4-yl]-1H-pyrazole-3-carboxamide]	0.79
NC(=O)Nc1cn(-c2ccc(-c3ccc(CO)cc3)cc2)nc1C(N)=O [Example 38, 4-[(aminocarbonyl)amino]-1-[4′-(hydroxymethyl)-1,1′-biphenyl-4-yl]-1H-pyrazole-3-carboxamide]	0.83
NC(=O)Nc1cn(-c2ccc(-c3cccc(CO)c3)cc2)nc1C(N)=O [Example 39, 4-[(aminocarbonyl)amino]-1-[3′-(hydroxymethyl)-1,1′-biphenyl-4-yl]-1H-pyrazole-3-carboxamide]	1.34
NC(=O)Nc1cn(-c2ccc(-c3ccncc3)cc2)nc1C(N)=O [Example 40, 4-[(aminocarbonyl)amino]-1-(4-pyridin-4-ylphenyl)-1H-pyrazole-3-carboxamide]	0.351
N#CCc1ccc(-c2cccc(-n3cc(NC(N)=O)c(C(N)=O)n3)c2)cc1 [Example 44, 4-[(aminocarbonyl)amino]-1-[4′-(cyanomethyl)-1,1′-biphenyl-3-yl]-1H-pyrazole-3-carboxamide]	2.08
CC(=O)Nc1ccc(-c2cccc(-n3cc(NC(N)=O)c(C(N)=O)n3)c2)cc1 [Example 55, 1-[4′-(acetylamino)-1,1′-biphenyl-3-yl]-4-[(aminocarbonyl)amino]-1H-pyrazole-3-carboxamide]	1.04
CS(=O)(=O)Nc1ccc(-c2cccc(-n3cc(NC(N)=O)c(C(N)=O)n3)c2)cc1 [Example 59, 4-[(aminocarbonyl)amino]-1-{4′-[(methylsulfonyl)amino]-1,1′-biphenyl-3-yl}-1H-pyrazole-3-carboxamide]	1.64
NC(=O)Nc1cn(-c2cccc(-c3cccc4ncccc34)c2)nc1C(N)=O [Example 60, 4-[(aminocarbonyl)amino]-1-(3-quinolin-5-ylphenyl)-1H-pyrazole-3-carboxamide]	3.75

Further lines, results first:

IC50 [µM]	SMILES
9.22	NC(=O)Nc1cn(-c2cccc(-c3ccc(F)cc3)c2)nc1C(N)=O [Example 42, 4-[(aminocarbonyl)amino]-1-(4′-fluoro-1,1′-biphenyl-3-yl)-1H-pyrazole-3-carboxamide]
8.54	NC(=O)Nc1cn(-c2cccc(-c3ccsc3)c2)nc1C(N)=O [Example 43, 4-[(aminocarbonyl)amino]-1-(3-thien-3-ylphenyl)-1H-pyrazole-3-carboxamide]
0.31	NC(=O)Nc1cn(-c2cccc(-c3ccncc3)c2)nc1C(N)=O [Example 45, 4-[(aminocarbonyl)amino]-1-(3-pyridin-4-ylphenyl)-1H-pyrazole-3-carboxamide]
0.66	NC(=O)Nc1cn(-c2cccc(-c3ccc(O)cc3)c2)nc1C(N)=O [Example 47, 4-[(aminocarbonyl)amino]-1-(4′-hydroxy-1,1 ′-biphenyl-3-yl)-1H-pyrazole-3-carboxamide]
1.04	NC(=O)Nc1cn(-c2cccc(-c3ccc(CO)cc3)c2)nc1C(N)=O [Example 48, 4-[(aminocarbonyl)amino]-1-[4′-(hydroxymethyl)-1,1′-biphenyl-3-yl]-1H-pyrazole-3-carboxamide]
2.48	NC(=O)Nc1cn(-c2cccc(-c3cccc(CO)c3)c2)nc1C(N)=O [Example 49, 4-[(aminocarbonyl)amino]-1-[3′-(hydroxymethyl)-1,1′-biphenyl-3-yl]-1H-pyrazole-3-carboxamide]
2.08	NC(=O)Nc1cn(-c2cccc(-c3cccc(N)c3)c2)nc1C(N)=O [Example 50, 1-(3′-amino-1,1′-biphenyl-3-yl)-4-[(aminocarbonyl)amino]-1H-pyrazole-3-carboxamide]
4.86	NCc1ccc(-c2cccc(-n3cc(NC(N)=O)c(C(N)=O)n3)c2)cc1 [Example 52, 4-[(aminocarbonyl)amino]-1-[4′-(aminomethyl)-1,1′-biphenyl-3-yl]-1H-pyrazole-3-carboxamide]
4.07	CC(=O)c1ccc(-c2cccc(-n3cc(NC(N)=O)c(C(N)=O)n3)c2)cc1 [Example 53, 1-(4′-acetyl-1,1′-biphenyl-3-yl)-4-[(aminocarbonyl)amino]-1H-pyrazole-3-carboxamide]
2.16	COc1ccc(-c2cccc(-n3cc(NC(N)=O)c(C(N)=O)n3)c2)cc1OC [Example 56, 4-[(aminocarbonyl)amino]-1-(3,4′-dimethoxy-1,1′-biphenyl-3-yl)-1H-pyrazole-3-carboxamide]
0.29	NC(=O)Nc1cn(-c2cccc(-c3cn[nH]c3)c2)nc1C(N)=O [Example 57, 4-[(aminocarbonyl)amino]-1-[3-(1H-pyrazol-4-yl)phenyl]-1H-pyrazole-3-carboxamide]
2.81	NC(=O)Nc1cn(-c2cccc(-c3ccc(C(=O)O)cc3)c2)nc1C(N)=O [Example 58, 3′-{3-(aminocarbonyl)-4-[(aminocarbonyl)amino]-1H-pyrazol-1-yl}-1,1′-biphenyl-4-carboxylic acid]
6.21	CN(C)c1ccc(-c2cccc(-n3cc(NC(N)=O)c(C(N)=O)n3)c2)cc1 [Example 61]
